Experimental data reported in patent US12697328B2, “Methods for treating metastasis with cathepsin C inhibitors” (Shanghai Institute of Nutrition and Health, Chinese Academy …, priority 2020, dated 2026).

System: 4T1 breast cancer cells
Assay: Tumor sphere formation of 4T1 cells in medium of neutrophils pre-treated with 4T1 CM
Format: cell-based
Details: 4T1 cells in medium of neutrophils pre-treated with CM of 4T1; vs untreated control; FIG. 10F

Structure (SMILES): Cn1c(=O)oc2ccc(-c3ccc(C[C@@H](C#N)NC(=O)[C@@H]4CNCCCO4)cc3)cc21 [brensocatib, (2S)—N-{(1S)-1-cyano-2-[4-(3-methyl-2-oxo-2,3-dihydro-1,3-benzoxazol-5-yl)phenyl]ethyl}-1,4-oxazepane-2-carboxamide]
- tumor sphere formation: suppressed
